Source: ChEMBL document CHEMBL5104090, “Recent advances in the medicinal chemistry of carbonic anhydrase inhibitors” (Eur J Med Chem, 2021)

Assays:
Carbonic anhydrase 1 [1] = target: T1, Carbonic anhydrase 1 (Homo sapiens, UniProt P00915)
Carbonic anhydrase 4 [2] = target: T2, Carbonic anhydrase 4 (Homo sapiens, UniProt P22748)
Carbonic anhydrase 2 [3] = target: T3, Carbonic anhydrase 2 (Homo sapiens, UniProt P00918)
Carbonic anhydrase 9 [4] = target: T4, Carbonic anhydrase 9 (Homo sapiens, UniProt Q16790)
Carbonic anhydrase 7 = Carbonic anhydrase 7 (Homo sapiens, UniProt P43166)
Carbonic anhydrase 9 [5] = target: T4, Carbonic anhydrase 9; remark: listed apart in the source
Carbonic anhydrase 9 [6] = target: T4, Carbonic anhydrase 9; remark: listed apart in the source
Carbonic anhydrase 4 [7] = target: T2, Carbonic anhydrase 4; remark: listed apart in the source
Carbonic anhydrase 2 [8] = target: T3, Carbonic anhydrase 2; remark: listed apart in the source
Carbonic anhydrase 1 [9] = target: T1, Carbonic anhydrase 1; remark: listed apart in the source
Carbonic anhydrase 12 [10] = target: T5, Carbonic anhydrase 12 (Homo sapiens, UniProt O43570)
Carbonic anhydrase 12 [11] = target: T5, Carbonic anhydrase 12; remark: listed apart in the source
Carbonic anhydrase 2 [12] = target: T3, Carbonic anhydrase 2; remark: listed apart in the source
Carbonic anhydrase 9 [13] = target: T4, Carbonic anhydrase 9; remark: listed apart in the source
Carbonic anhydrase 1 [14] = target: T1, Carbonic anhydrase 1; remark: listed apart in the source

T5 sequence (O43570 whole entry): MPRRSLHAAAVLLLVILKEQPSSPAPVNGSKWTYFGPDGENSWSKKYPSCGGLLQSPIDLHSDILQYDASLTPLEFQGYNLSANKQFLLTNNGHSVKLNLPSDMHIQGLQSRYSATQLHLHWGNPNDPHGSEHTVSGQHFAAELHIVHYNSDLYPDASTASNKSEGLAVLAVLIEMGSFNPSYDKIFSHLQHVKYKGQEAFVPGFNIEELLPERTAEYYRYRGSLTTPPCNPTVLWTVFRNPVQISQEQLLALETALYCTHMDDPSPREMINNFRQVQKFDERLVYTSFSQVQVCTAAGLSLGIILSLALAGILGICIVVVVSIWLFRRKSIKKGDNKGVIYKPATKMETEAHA
T2 sequence (P22748 whole entry): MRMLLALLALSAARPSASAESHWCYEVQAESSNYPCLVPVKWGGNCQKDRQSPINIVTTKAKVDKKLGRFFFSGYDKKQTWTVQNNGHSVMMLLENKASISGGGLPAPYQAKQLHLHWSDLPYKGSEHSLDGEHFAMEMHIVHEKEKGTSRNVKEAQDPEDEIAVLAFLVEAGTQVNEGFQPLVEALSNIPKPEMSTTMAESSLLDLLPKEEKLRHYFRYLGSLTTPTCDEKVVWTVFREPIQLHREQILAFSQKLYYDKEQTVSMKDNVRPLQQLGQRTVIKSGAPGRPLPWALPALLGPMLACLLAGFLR
Sequence of Carbonic anhydrase 7 (P43166 whole entry): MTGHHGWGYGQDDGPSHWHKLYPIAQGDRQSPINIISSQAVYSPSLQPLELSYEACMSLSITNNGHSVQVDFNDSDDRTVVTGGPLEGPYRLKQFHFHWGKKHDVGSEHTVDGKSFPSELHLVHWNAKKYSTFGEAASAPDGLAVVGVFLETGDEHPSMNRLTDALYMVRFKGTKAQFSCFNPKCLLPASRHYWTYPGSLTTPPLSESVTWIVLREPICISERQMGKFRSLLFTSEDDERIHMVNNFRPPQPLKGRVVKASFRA
T1 sequence (P00915 whole entry): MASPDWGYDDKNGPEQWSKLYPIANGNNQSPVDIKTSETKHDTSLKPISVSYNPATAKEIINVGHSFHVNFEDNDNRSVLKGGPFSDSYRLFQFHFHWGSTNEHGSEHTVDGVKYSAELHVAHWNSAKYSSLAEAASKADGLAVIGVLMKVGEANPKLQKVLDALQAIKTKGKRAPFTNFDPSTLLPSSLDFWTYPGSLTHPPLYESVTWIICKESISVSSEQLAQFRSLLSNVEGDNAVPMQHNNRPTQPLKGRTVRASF

For `COC(=O)c1ccc2c(c1)C(=O)N(CCc1ccccc1)C2=O`, the Ki (Carbonic anhydrase 1 [1]) was greater than 10000 nM, the Ki (Carbonic anhydrase 4 [2]) was greater than 10000 nM and the Ki (Carbonic anhydrase 2 [3]) was greater than 10000 nM. For the same compound, the Ki (Carbonic anhydrase 9 [4]) was greater than 10000 nM.

With `COc1ccc([SeH])cc1` the Ki (Carbonic anhydrase 7) was 760 nM and the Ki (Carbonic anhydrase 9 [5]) was 180 nM.

For `Cc1cccc(C)c1[SeH]`, the Ki (Carbonic anhydrase 7) was 760 nM.

`NS(=O)(=O)c1ccc(C(=O)NN2C(=O)c3ccccc3C2=O)cc1` gave a Kis (Carbonic anhydrase 9 [6]) of 3 nM.

`NS(=O)(=O)c1ccc(N/C=C/C(=O)c2cccs2)cc1` was tested, and the Ki (Carbonic anhydrase 9 [5]) was 0.21 nM and the Ki (Carbonic anhydrase 4 [7]) was 6.5 nM.

`NS(=O)(=O)c1ccc(N2N=C(c3cccs3)CC2c2cccs2)cc1` (stereo unspecified) was tested, and the Ki (Carbonic anhydrase 2 [8]) was 37.3 nM and the Ki (Carbonic anhydrase 1 [9]) was 24.2 nM.

In the case of `CCOC(=O)c1ccc(N2C(=O)c3ccc(C(=O)OC)cc3C2=O)cc1`, the Ki (Carbonic anhydrase 1 [1]) is reported as greater than 10000 nM, the Ki (Carbonic anhydrase 4 [2]) is reported as greater than 10000 nM and the Ki (Carbonic anhydrase 2 [3]) is reported as greater than 10000 nM. It also gave a Ki (Carbonic anhydrase 9 [4]) greater than 10000 nM.

Work on `COc1ccc(C2CC(c3cccs3)=NN2c2ccc(S(N)(=O)=O)cc2)cc1` (stereo unspecified) yielded a Ki (Carbonic anhydrase 2 [8]) of 37.3 nM and a Ki (Carbonic anhydrase 1 [9]) of 24.2 nM.

`O=C(O)c1ccc2c(c1)C(=O)N(c1ccccc1)C2=O` was tested, and the Ki (Carbonic anhydrase 1 [1]) was greater than 10000 nM, the Ki (Carbonic anhydrase 4 [2]) was greater than 10000 nM and the Ki (Carbonic anhydrase 2 [3]) was greater than 10000 nM. The Ki (Carbonic anhydrase 9 [4]) was greater than 10000 nM.

`NS(=O)(=O)c1ccc(N/C=C/C(=O)c2ccco2)cc1` gave a Ki (Carbonic anhydrase 9 [5]) of 0.21 nM and a Ki (Carbonic anhydrase 4 [7]) of 6.5 nM.

`NS(=O)(=O)c1ccc(CCn2c(SCc3ccccc3)nc3ccccc3c2=O)cc1` showed a Ki (Carbonic anhydrase 12 [10]) of 17.2 nM and a Ki (Carbonic anhydrase 9 [5]) of 19.3 nM.

`Cn1c(-c2ccc(Cl)cc2)nc2cc(C(=O)NO)ccc21` was tested, and the IC50 (Carbonic anhydrase 12 [11]) was greater than 360 nM, the IC50 (Carbonic anhydrase 2 [12]) was greater than 360 nM and the IC50 (Carbonic anhydrase 9 [13]) was greater than 360 nM. For the same compound, the IC50 (Carbonic anhydrase 1 [14]) was greater than 360 nM.

`O=C(O)c1ccc2c(c1)C(=O)N(CCc1ccccc1)C2=O` was tested, and the Ki (Carbonic anhydrase 1 [1]) was greater than 10000 nM, the Ki (Carbonic anhydrase 4 [2]) was greater than 10000 nM and the Ki (Carbonic anhydrase 2 [3]) was greater than 10000 nM. The Ki (Carbonic anhydrase 9 [4]) was greater than 10000 nM.

`Cn1c(-c2ccc(Cl)cc2)nc2cc(C(=O)O)ccc21` was tested, and the IC50 (Carbonic anhydrase 12 [11]) was greater than 360 nM, the IC50 (Carbonic anhydrase 2 [12]) was greater than 360 nM and the IC50 (Carbonic anhydrase 9 [13]) was greater than 360 nM. It also gave an IC50 (Carbonic anhydrase 1 [14]) greater than 360 nM.

In the case of `COc1ccc(C2CC(c3cccs3)=NN2c2ccc(S(N)(=O)=O)cc2)cc1OC` (stereo unspecified), the Ki (Carbonic anhydrase 2 [8]) is reported as 37.3 nM and the Ki (Carbonic anhydrase 1 [9]) is reported as 24.2 nM.

`NS(=O)(=O)c1ccc(CN2C(=O)c3ccc(C(=O)O)cc3C2=O)cc1` was tested, and the Ki (Carbonic anhydrase 1 [1]) was 54.1 nM, the Ki (Carbonic anhydrase 4 [2]) was 317 nM and the Ki (Carbonic anhydrase 2 [3]) was 25.9 nM. For the same compound, the Ki (Carbonic anhydrase 9 [4]) was 54.1 nM.

In the case of `Cn1c(-c2ccccc2)nc2cc(C(N)=O)ccc21`, the IC50 (Carbonic anhydrase 12 [11]) is reported as greater than 360 nM, the IC50 (Carbonic anhydrase 2 [12]) is reported as greater than 360 nM and the IC50 (Carbonic anhydrase 9 [13]) is reported as greater than 360 nM. For the same compound, the IC50 (Carbonic anhydrase 1 [14]) was greater than 360 nM.

`CCSc1nc2ccccc2c(=O)n1CCc1ccc(S(N)(=O)=O)cc1` showed a Ki (Carbonic anhydrase 12 [10]) of 57.8 nM and a Ki (Carbonic anhydrase 9 [5]) of 57.8 nM.

`NS(=O)(=O)c1ccc(CCn2c(SCc3ccc(Cl)cc3)nc3ccccc3c2=O)cc1` showed a Ki (Carbonic anhydrase 12 [10]) of 17.2 nM and a Ki (Carbonic anhydrase 9 [5]) of 19.3 nM.

With `[SeH]c1ccccc1` the Ki (Carbonic anhydrase 7) was 760 nM and the Ki (Carbonic anhydrase 9 [5]) was 180 nM.

`Cn1c(-c2ccccc2)nc2cc(C(=O)O)ccc21` gave an IC50 (Carbonic anhydrase 12 [11]) greater than 360 nM, an IC50 (Carbonic anhydrase 2 [12]) greater than 360 nM and an IC50 (Carbonic anhydrase 9 [13]) greater than 360 nM. The IC50 (Carbonic anhydrase 1 [14]) was greater than 360 nM.

`Cc1ccc([SeH])cc1` was tested, and the Ki (Carbonic anhydrase 7) was 760 nM and the Ki (Carbonic anhydrase 9 [5]) was 180 nM.

Work on `Cn1c(-c2ccccc2)nc2cc(S(N)(=O)=O)ccc21` yielded an IC50 (Carbonic anhydrase 12 [11]) greater than 360 nM, an IC50 (Carbonic anhydrase 2 [12]) greater than 360 nM and an IC50 (Carbonic anhydrase 9 [13]) greater than 360 nM. It also gave an IC50 (Carbonic anhydrase 1 [14]) greater than 360 nM.

Compound `Cn1c(-c2ccccc2)nc2cc(C(=O)NO)ccc21` has an IC50 (Carbonic anhydrase 12 [11]) greater than 360 nM, an IC50 (Carbonic anhydrase 2 [12]) greater than 360 nM and an IC50 (Carbonic anhydrase 9 [13]) greater than 360 nM. The IC50 (Carbonic anhydrase 1 [14]) was greater than 360 nM.

`N#CCSc1nc2ccccc2c(=O)n1CCc1ccc(S(N)(=O)=O)cc1` gave a Ki (Carbonic anhydrase 12 [10]) of 57.8 nM and a Ki (Carbonic anhydrase 9 [5]) of 57.8 nM.

`COC(=O)c1ccc2c(c1)C(=O)N(c1ccc(C(=O)O)cc1)C2=O` gave a Ki (Carbonic anhydrase 1 [1]) greater than 10000 nM, a Ki (Carbonic anhydrase 4 [2]) greater than 10000 nM and a Ki (Carbonic anhydrase 2 [3]) greater than 10000 nM. The Ki (Carbonic anhydrase 9 [4]) was greater than 10000 nM.

Work on `Cc1ncc([N+](=O)[O-])n1CCS(N)(=O)=O` yielded an IC50 (Carbonic anhydrase 9 [13]) of 643 nM.

With `Fc1ccc([SeH])cc1` the Ki (Carbonic anhydrase 7) was 760 nM and the Ki (Carbonic anhydrase 9 [5]) was 180 nM.

Work on `NS(=O)(=O)c1ccc(N2N=C(c3cccs3)CC2c2ccc(Cl)cc2)cc1` (stereo unspecified) yielded a Ki (Carbonic anhydrase 2 [8]) of 37.3 nM and a Ki (Carbonic anhydrase 1 [9]) of 24.2 nM.

Work on `Cn1c(-c2ccc(Cl)cc2)nc2cc(C(N)=O)ccc21` yielded an IC50 (Carbonic anhydrase 12 [11]) greater than 360 nM, an IC50 (Carbonic anhydrase 2 [12]) greater than 360 nM and an IC50 (Carbonic anhydrase 9 [13]) greater than 360 nM. The IC50 (Carbonic anhydrase 1 [14]) was greater than 360 nM.

Compound `COc1ccc(C(=O)/C=C/Nc2ccc(S(N)(=O)=O)cc2)cc1` has a Ki (Carbonic anhydrase 9 [5]) of 0.21 nM and a Ki (Carbonic anhydrase 4 [7]) of 6.5 nM.

With `Cc1ccc(C2CC(c3cccs3)=NN2c2ccc(S(N)(=O)=O)cc2)cc1` (stereo unspecified) the Ki (Carbonic anhydrase 2 [8]) was 37.3 nM and the Ki (Carbonic anhydrase 1 [9]) was 24.2 nM.

For `NS(=O)(=O)c1ccc(N/C=C/C(=O)c2ccc(Cl)cc2)cc1`, the Ki (Carbonic anhydrase 9 [5]) was 0.21 nM and the Ki (Carbonic anhydrase 4 [7]) was 6.5 nM.

For `NS(=O)(=O)c1ccc(C(=O)N/N=C/c2cccc(O)c2)cc1`, the Ki (Carbonic anhydrase 12 [10]) was 8.6 nM and the Ki (Carbonic anhydrase 9 [5]) was 8.5 nM.

In the case of `COC(=O)c1ccc2c(c1)C(=O)N(c1ccc(S(N)(=O)=O)cc1)C2=O`, the Ki (Carbonic anhydrase 1 [1]) is reported as 54.1 nM, the Ki (Carbonic anhydrase 4 [2]) is reported as 317 nM and the Ki (Carbonic anhydrase 2 [3]) is reported as 25.9 nM. It also gave a Ki (Carbonic anhydrase 9 [4]) of 46 nM.

`CCN(CC)c1ccc(/C=N/NC(=O)c2ccc(S(N)(=O)=O)cc2)c(O)c1` gave a Ki (Carbonic anhydrase 12 [10]) of 8.6 nM and a Ki (Carbonic anhydrase 9 [5]) of 15.8 nM.

`Cn1c(-c2ccccn2)nc2cc(S(N)(=O)=O)ccc21` gave an IC50 (Carbonic anhydrase 12 [11]) of 9.9 nM, an IC50 (Carbonic anhydrase 2 [12]) greater than 360 nM and an IC50 (Carbonic anhydrase 9 [13]) of 6.6 nM. For the same compound, the IC50 (Carbonic anhydrase 1 [14]) was greater than 360 nM.
